Experimental data reported in patent publication US12227521B2, “CGRP antagonist compounds” (Nxera Pharma UK Limited, priority 2019, dated 2025).

Biological target: T1, human CGRP receptor (Homo sapiens, UniProt O60894+Q16602)
T1 construct: SK-N-MC endogenously expressing the human CGRP receptor; endogenous in cells; host or cells: SK-N-MC human neuroblastoma cells
Assay: cAMP functional assay (HTRF cAMP dynamic-2) in SK-N-MC cells
Type: cell-based
Settings: SK-N-MC cells endogenously expressing human CGRP receptor; challenge with EC80 human CGRP (0.3 nM); functional pKb converted from pIC50 by modified Cheng-Prussoff equation
Description: cAMP production following receptor activation was determined using the Homogeneous Time-Resolved Fluorescence (HTRF) cAMP dynamic-2 assay (Cisbio, France). The human neuroblastoma cell line SK-N-MC endogenously expressing the human CGRP receptor was seeded at a density of 12,500 cells/well in solid walled 96 well half area plates (Costar, Catalog Number 3688, Corning Life Sciences, Germany). After 16 h incubation at 37° C. media was removed and cells were incubated at 37° C. for 30 min in serum free media containing 500 μM IBMX (Tocris, Abingdon, UK, Catalog Number 2845) and increasing concentrations of test antagonist. Following this cells were challenged with an EC80 concentration of human CGRP (0.3 nM) for a further 30 m at 37°) and then cAMP production was determined as manufacturer's instructions before plates were read on a PheraStar fluorescence plate reader (BMG LabTech, Germany). IC50 values were derived from the inhibition curve. The pIC50 values (where pIC50=−log10 IC50) were converted to a functional pKb value using a modified Cheng-Prussoff equation where Kd=agonist EC50 and L hot=agonist challenge concentration. The pKb values of certain compounds of the invention are detailed in Table 5.

T1 sequence (Q16602 23-461): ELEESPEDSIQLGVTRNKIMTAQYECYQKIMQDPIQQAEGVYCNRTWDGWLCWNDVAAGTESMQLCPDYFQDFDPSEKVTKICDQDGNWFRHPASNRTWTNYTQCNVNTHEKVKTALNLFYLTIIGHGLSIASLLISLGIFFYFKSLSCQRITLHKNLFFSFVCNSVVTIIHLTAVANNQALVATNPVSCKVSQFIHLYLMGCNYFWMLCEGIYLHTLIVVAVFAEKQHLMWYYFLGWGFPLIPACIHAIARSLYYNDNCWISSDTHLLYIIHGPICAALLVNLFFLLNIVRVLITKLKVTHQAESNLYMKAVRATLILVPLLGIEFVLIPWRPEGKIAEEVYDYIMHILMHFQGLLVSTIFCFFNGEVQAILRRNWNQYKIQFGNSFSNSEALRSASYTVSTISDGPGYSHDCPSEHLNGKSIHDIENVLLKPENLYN
T1 sequence (O60894 27-148): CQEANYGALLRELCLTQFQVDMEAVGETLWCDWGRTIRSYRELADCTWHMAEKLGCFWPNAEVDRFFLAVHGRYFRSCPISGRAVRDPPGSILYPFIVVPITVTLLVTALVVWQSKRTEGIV

Kb: 6.31 pM
Structure (SMILES): C[C@@H]1[C@H](c2c(F)ccc(F)c2F)C[C@@H]2NC(=O)c3cnc4c(c3)C[C@@]3(C4)C(=O)Nc4ncc(cc43)/C=C/COCCOCCN1C2=O (single isomer, unassigned) [1-1 Isomer 1]
